Counter-ions that a name gives are not always drawn.

The test system of data set [1] is MHC class II expression in B cells. Kind of data set: Inhibitory effect on in vitro MHC class II expression using mouse splenocytes (LPS-stimulated, B220 positive B cells). The class given is cell-based. To be noted: B-cell, C57BL/6J mouse splenocytes, LPS 2 μg/mL, 48 hours, YAe antibody, read-out: Dat2: IC50 value, inhibition of MHC class II expression. From the text:
Test Example 2: Evaluation of Inhibitory Effect on In Vitro MHC Class II Expression Using Mouse Splenocytes (Cell Evaluation System)
In antigen-presenting cells, inhibition of cathepsin S suppresses expression of MHC class II molecules. As a result, suppression of antigen presentation to CD4-positive T cells causes a deterioration in the immune response to foreign antigens. In regard to an increase in MHC class II expression in B cells, the inhibitory effect of the compound of the formula (I) was examined.
Splenocytes collected from male C57BL/6J mice (Charles River Laboratories Japan, Inc.) were seeded in a 96-well plate by 1×10^5 cells/well. With RPMI 1640 medium (containing 10% fetal bovine serum (FCS), 5×10^−5 M 2-mercaptoethanol, 50 IU/mL penicillin, and 50 μg/mL streptomycin), 10 mM DMSO solution of the test compound was diluted 5-fold dilution series with 9 steps so that a final concentration becomes […] to 10 μM, or diluted 5-fold dilution series with 12 steps so that a final concentration becomes 0.205 pM to 10 μM (final DMSO concentration is 0.1%), and added. At the same time, LPS (Sigma L4005) was added to the well so that the final concentration becomes 2 μg/mL, and the cells were cultured at 37° C. under 5% CO2 for 48 hours. After culturing, the cells were stained with biotin-labeled YAe antibody (EBIOSCIENCE 13-5741-85) at 4° C. for 20 minutes, and washed. The cells were further stained with FITC fluorochrome labeled anti-mouse B220 antibody (BD BIOSCIENCES 553088) and PE fluorochrome labeled streptavidin (BD BIOSCIENCES 554061) for 20 minutes at 4° C. Therefore, an expression level (fluorescence intensity of YAe-biotin/streptavidin-PE) of MHC class II bound to the Ea peptide in B220 positive B cells was measured by using a flow cytometry system (Guava EasyCyte Plus System, Millipore). An inhibition rate at each concentration was defined by suppressing a value at the time of non-stimulation of LPS without addition of the test compound and a value at the time of stimulation of LPS without addition of the test compound by 100% inhibition and 0% inhibition, respectively, and therefore an IC50 value was calculated by the sigmoid Emax nonlinear regression method. In the table, Ex represents Example compound No., and Dat2 represents the IC50 value (nM).

In data set [2] the test system is MHC class II expression in B cells of peripheral blood. Nature of the data set: Ex vivo MHC class II expression inhibitory effect using mouse peripheral blood after oral administration. It is filed as in vivo. To be noted: male C57BL/6J mice, 0.3 mg/kg oral, peripheral blood after 6 hours, LPS 100 μg/mL 15 hours. Here is the method: Test Example 3: Evaluation of Ex Vivo MHC Class II Expression Inhibitory Effect Using Mouse Peripheral Blood
The expression inhibitory effect of MHC class II molecules was evaluated in an ex vivo system.
The test compound was orally administered to male C57BL/6J mice (Charles River Laboratories Japan, Inc.), and an inhibition effect with respect to an increase in the expression of MHC class II in B cells of peripheral blood after oral administration was examined. That is, 10 mL/kg of the test compound dissolved in a vehicle [30% propylene glycol solvent {propylene glycol:hydrogenated castor oil (HCO40): Tween 80=4:2:1}/HCl (2 equivalents to the test compound)/water] was orally administered to male C57BL/6J mice (dose: 0.3 mg/kg, 4 subjects per group), and peripheral blood was recovered after 6 hours. To 90 μL of the peripheral blood, 10 μL of PBS or 10 μL (final concentration 100 μg/mL) of LPS (Sigma L4005) was added, and the culturing was carried out at 37° C. under 5% CO2 for 15 hours. […] After washing, using the flow cytometry system (FACSCanto II, BD BIOSCIENCES), an expression level of MHC class II on a surface of B220 positive B cells was measured with an average fluorescence intensity of FITC (hereinafter referred to as MFI) as an index. […]

A further data set addresses T1, human cathepsin S (Homo sapiens, UniProt P25774).
T1 construct: purchased R&D 1183-CY-010
Nature of the data set: Measurement of in vitro human cathepsin S inhibitory activity. It is filed as biochemical. To be noted: substrate VVR-AMC 40 μM, pH 4.5, 37° C.; read-out: Dat1: IC50 value of human cathepsin S inhibitory activity. As to the method:
Test Example 1: Measurement of In Vitro Human Cathepsin S Inhibitory Activity
To a 96-well plate, 5 μL of human cathepsin S enzyme (R&D 1183-CY-010) was added so as to be 20 ng/well. Next, with assay buffer (50 mM sodium acetate, 250 mM sodium chloride, and 5 mM dithiothreitol (DTT), pH=4.5), a test compound (10 mM DMSO solution) was diluted 10-fold dilution series with 5 steps so that a final concentration becomes 0.1 nM to 1 μM or diluted 3-fold dilution series with 7 steps so that a final concentration becomes 0.01 nM to 10 nM, and 10 μL thereof was added to the well (final DMSO concentration was 0.1%), followed by addition of 25 μL of synthetic substrate VVR-AMC (Peptide Institute 3211-V) so that a final concentration becomes 40 μM, and thereby an enzymatic reaction was initiated. The fluorescence intensity (excitation wavelength: 380 nm, fluorescence wavelength: 460 nm) was measured at 37° C. for 5 to 10 minutes from the start of the reaction using a spectrofluorophotometer (SPECTRAMAX GEMINI, Molecular Devices), and a reaction rate when linearity was recognized (5 minutes) was obtained for each concentration of the test compound. An inhibition rate at each concentration was defined by suppressing a reaction rate at the time of non-addition of an enzyme without adding the test compound and a reaction rate at the time of addition of an enzyme without adding the test compound by 100% inhibition and 0% inhibition, respectively, and therefore an IC50 value was calculated by a sigmoid Emax nonlinear regression method. In the table, Ex represents Example compound No., and Dat1 represents the IC50 value (nM) of human cathepsin S inhibitory activity.

The subject of data set [3] is NZB/W F1 mice (SLE-like disease). Kind of data set: Inhibitory effect on SLE-like disease onset in spontaneous onset model using NZB/W F1 mice. The class given is in vivo, mouse. To be noted: NZB/W F1 female mice. From the text: Test Example 4: Evaluation of Inhibitory Effect on SLE-Like Disease Onset in Spontaneous Onset Model Using NZB/W F1 Mice
NZB/W F1 mice (Japan SLC, Inc.) is used as a model of SLE spontaneously developing a disease condition close to humans (“JAMA”, 1966, Vol. 195, p. 145; “Advances in Immunology”, 1985, Vol. 37, p. 269-390; “Journal of Biomedicine and Biotechnology”, 2011, Vol. 2011, 271694).
NZB/W F1 female mice were divided into groups according to urine protein values (creatinine corrected value), anti-double stranded DNA (dsDNA) antibody value (IgG) in plasma, an expression level of MHC class II in B cells of peripheral blood, and body weight at age of 19 weeks. At this time, individuals with urine protein values (creatinine corrected value) of 3 or more were excluded. From age of 20 weeks, the test compound was orally administered twice a day, and then urine collection and blood collection were performed over time. The change in urine protein value and anti-dsDNA antibody value over time were evaluated.
In the above test, anti-dsDNA IgG antibody value in plasma generated in association with SLE-like disease was measured by ELISA method (ALPHA DIAGNOSTIC 5120). In geometric mean values of the antibody value at age of 28 weeks and age of 32 weeks of each individual, a geometric mean value of 10 vehicle-administered subjects was 216662 U/mL, whereas a geometric mean value of 10 subjects administered with 1 mg/kg b.i.d. of the compound of Example 2 was 26827 U/mL, which is a low value having a significant difference (P value=0.0009, Dunnett's multiple comparison). In addition, urine protein values (creatinine corrected value) at age of 40 weeks were measured. A geometric mean value of the 10 vehicle-administered subjects was 13.0, whereas a geometric mean value of the 10 subjects administered with 1 mg/kg b.i.d. of the compound of Example 2 was 0.7, which is a low value having a significant difference (P value=0.0005, Dunnett's multiple comparison).

T1 sequence (P25774 115-331): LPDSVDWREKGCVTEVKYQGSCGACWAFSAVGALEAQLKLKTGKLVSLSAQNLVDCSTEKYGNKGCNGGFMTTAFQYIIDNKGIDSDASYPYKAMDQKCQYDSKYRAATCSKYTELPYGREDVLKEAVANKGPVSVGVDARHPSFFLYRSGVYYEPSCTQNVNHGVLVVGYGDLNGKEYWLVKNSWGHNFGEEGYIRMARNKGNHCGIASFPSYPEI

The term melting point denotes the temperature of the solid-liquid transition. Molecule `CN1CCN(Cc2ccc(C(F)(F)[C@@H]3C[C@@H](C(=O)NC4(C#N)CC4)N(C(=O)C4(C)CC4)C3)c(C(F)(F)F)c2)CC1` (as salt: succinate) [Example 18, (4R)—N-(1-cyanocyclopropyl)-4-(difluoro{4-[(4-methylpiperazin-1-yl)methyl]-2-(trifluoromethyl)phenyl}methyl)-1-[(1-methylcyclopropyl)carbonyl]-L-prolinamide] gave a melting point of 134.3 °C.

Usually IC50 stands for the midpoint of a concentration-inhibition curve. As for `CN1CCN(Cc2ccc(C(F)(F)C3C[C@@H](C(=O)NC4(C#N)CC4)N(C(=O)C4(C)CC4)C3)c(C(F)(F)F)c2)CC1` (mixture of isomers) [Example 8, N-(1-cyanocyclopropyl)-4-(difluoro{4-[(4-methylpiperazin-1-yl)methyl]-2-(trifluoromethyl)phenyl}methyl)-1-[(1-methylcyclopropyl)carbonyl]-L-prolinamide dihydrochloride], the 50% inhibitory concentration (IC50) in data set [1] was 590 pM; at human cathepsin S, 880 pM. The “inhibition rate of ΔMFI (increase in expression of MHC class II on B220 positive B cells)” value in data set [2] is 41%.

On to `CN1CCN(Cc2ccc(C(F)(F)[C@@H]3C[C@@H](C(=O)NC4(C#N)CC4)N(C(=O)C4(C)CC4)C3)c(C(F)(F)F)c2)CC1` [Example 2, (4R)—N-(1-cyanocyclopropyl)-4-(difluoro{4-[(4-methylpiperazin-1-yl)methyl]-2-(trifluoromethyl)phenyl}methyl)-1-[(1-methylcyclopropyl)carbonyl]-L-prolinamide dihydrochloride], for which the IC50 was determined as 650 pM in data set [1] and 810 pM at human cathepsin S. Also, the “effect on SLE-like disease onset” value in data set [3] (1 mg/kg b.i.d. oral) is given as “has the effect of suppressing the SLE-like disease onset”. Moreover, the “anti-dsDNA IgG antibody value in plasma, geometric mean value” in data set [3] (1 mg/kg b.i.d. oral from age of 20 weeks, age of 28 weeks and 32 weeks, 10 subjects, vehicle 216662 U/mL, P value=0.0009) turned out to be 26827 U/mL. For the same molecule, the “urine protein value (creatinine corrected value), geometric mean value” in data set [3] (1 mg/kg b.i.d. oral, age of 40 weeks, 10 subjects, vehicle 13.0, P value=0.0005) was 0.7.

With `CN1CCN(Cc2ccc(C(F)(F)[C@@H]3C[C@@H](C(=O)NC4(C#N)CC4)N(C(=O)C4(C(F)(F)F)CC4)C3)c(C(F)(F)F)c2)CC1` [Example 4, (4R)—N-(1-cyanocyclopropyl)-4-(difluoro{4-[(4-methylpiperazin-1-yl)methyl]-2-(trifluoromethyl)phenyl}methyl)-1-{[1-(trifluoromethyl)cyclopropyl]carbonyl}-L-prolinamide], the IC50 in data set [1] is 620 pM; on human cathepsin S, 1000 pM.

For `CCN1CCN(Cc2ccc(C(F)(F)[C@@H]3C[C@@H](C(=O)NC4(C#N)CC4)N(C(=O)C4(C(F)(F)F)CC4)C3)c(C(F)(F)F)c2)CC1` [Example 13], the values for the IC50 (in data set [1]; on human cathepsin S) were 370 pM and 1000 pM, respectively.

Consider `CCN1CCN(Cc2ccc(C(F)(F)[C@@H]3C[C@@H](C(=O)NC4(C#N)CC4)N(C(=O)C4(C)CC4)C3)c(C(F)(F)F)c2)CC1` [Example 14], for which the IC50 in data set [1] was 600 pM; at human cathepsin S it was 430 pM.

The values are drawn from patent US10532979B2, “Phenyldifluoromethyl-substituted prolinamide compound” (ASTELLAS PHARMA INC., priority 2017, dated 2020).
